Reference: patent US12073966B2 (priority 2012, dated 2024)
Entries after “also recorded” stand apart in the source; their conditions may differ.

Experiments:
αHL pores = αHL pores (Staphylococcus aureus, UniProt P09616)
[1] = assay type: physicochemical
Procedure: A droplet containing pyranine (10 mM) and DPhPC (1 mg mL^−1) in 1 M KCl, 10 mM Tris·HCl, pH 7.0, was used to form a bilayer with another droplet containing DPhPC (1 mg mL^−1) but no pyranine in the same buffer. The droplets were incubated in a mixture of hexadecane/silicone oil AR20 (1:1 v/v) containing DPhPC (1 mg mL^−1).
An Ag/AgCl electrode, the cis electrode, was inserted into one droplet, and attached to the grounded end of a patch-clamp headstage (Axon Instruments, USA). A second Ag/AgCl electrode (trans) inserted in another droplet was connected to the active end. A positive potential causes the flow of anions from the cis to the trans electrode and of cations from trans to cis. The current was amplified by using a patchclamp amplifier (Axopatch 200B, Axon Instruments, USA), filtered with a low-pass Bessel filter (80 dB/decade) with a corner frequency of 1 kHz, and digitized with a Digidata 1322 A/D converter (Axon Instruments) at a sampling frequency of 20 kHz. Post-acquisition, the data were low-pass filtered at 100 Hz to 400 Hz. The droplet assembly, electrodes, and the headstage were enclosed in a metal box to minimize electrical noise.

αHL = αHL (Staphylococcus aureus, UniProt P09616); assay type: biochemical
Chain of αHL (P09616 27-319 limits assumed): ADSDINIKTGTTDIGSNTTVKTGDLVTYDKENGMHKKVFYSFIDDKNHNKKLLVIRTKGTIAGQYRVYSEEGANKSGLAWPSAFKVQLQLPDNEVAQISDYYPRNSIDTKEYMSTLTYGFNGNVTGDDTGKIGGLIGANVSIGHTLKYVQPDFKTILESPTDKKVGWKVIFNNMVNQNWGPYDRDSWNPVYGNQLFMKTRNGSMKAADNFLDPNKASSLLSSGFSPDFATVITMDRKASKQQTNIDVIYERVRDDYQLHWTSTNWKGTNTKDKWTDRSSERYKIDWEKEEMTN

Chain of αHL pores (P09616 27-319 limits assumed): as above

Molecule | dye transfer through bilayers of the droplet network (αHL pores) | time of influx into droplet 4 (fastest influx) (αHL pores) | time until colour change in all droplets of the second layer (αHL pores) | time until αHL-containing droplets turned green (αHL pores) | effect on bilayer stability ([1]; current recordings, pyranine 10 mM) | time the bilayer was stable (capacitance monitoring) ([1]; one droplet with pyranine 10 mM, DPhPC 1 mg mL^-1, hexadecane/silicone oil AR20 1:1) | effect on ionic current / electrical signal through αHL pores (αHL)
O=S(=O)(O)c1cc(O)c2ccc3c(S(=O)(=O)O)cc(S(=O)(=O)O)c4ccc1c2c34 [pyranine, 8-hydroxypyrene-1,3,6-trisulfonic acid] | only through droplets containing αHL | ≤ 13 h | 4 days | ~70 h | did not compromise bilayer stability | at least 90 min | 
xylene cyanol | did not show any transfer; also recorded: No transfer |  |  |  |  |  | 
γ-cyclodextrin [γCD] |  |  |  |  |  |  | intermittently interrupted; also recorded: interrupted by γCD blockades
